Results on one sequence are retold here after article PMC5347165, “Killing of Staphylococcus aureus and Salmonella enteritidis and neutralization of lipopolysaccharide by 17-residue bovine lactoferricins: improved activity of Trp/Ala-containing molecules” (Scientific Reports, 2017).

Where “and” joins values, the source holds several entries; their conditions need not be identical. Equal entries are not always repeated. Where two headings read alike, the source gives them in different places.

Broadly, the MIC is the smallest concentration in the dilution series that meets the test's criterion for growth inhibition. High values mean weaker potency, low ones greater potency.

For one test, the system named is S. enteritidis CVCC3377. The class given is cell-based, Salmonella enteritidis. Particulars: microtiter broth dilution, 10^5 CFU/ml, 16‒18 h at 37 °C; representative of three independent experiments. The protocol:
(§1) The MIC values of LfcinB17-33 derivatives against bacteria were determined by the microtiter broth dilution method. Briefly, 10 μl of serially diluted aliquots of peptides were added to each well of 96-well microtiter plates, followed by the addition of 90 μl exponential phase bacteria (10^5 CFU/ml) and incubated for 16‒18 h at 37 °C.
(Broth dilution looks for growth in wells or tubes with falling amounts of substance.)

The test system of test [1] is Bacillus subtilis ATCC6633. The class given is cell-based. Particulars: microtiter broth dilution, 10^5 CFU/ml, 16‒18 h at 37 °C; representative of three independent experiments. The protocol:
as §1

Test [2] concerns Enterococcus faecium CMCC1.2136. It is filed as cell-based. The conditions noted are these: microtiter broth dilution, 10^5 CFU/ml, 16‒18 h at 37 °C; representative of three independent experiments. The protocol: as §1
The subject of a further test is Escherichia coli CVCC195. The class given is cell-based. Particulars: microtiter broth dilution, 10^5 CFU/ml, 16‒18 h at 37 °C; representative of three independent experiments. The protocol: as §1
Test [3] has as its system Pseudomonas aeruginosa CICC10419. The class given is cell-based. Particulars: microtiter broth dilution, 10^5 CFU/ml, 16‒18 h at 37 °C; representative of three independent experiments. The protocol:
as §1

In the next test the test system is S. choleraesuis CVCC503. It is filed as cell-based. Particulars: microtiter broth dilution, 10^5 CFU/ml, 16‒18 h at 37 °C; representative of three independent experiments. The protocol:
as §1

A further test deals with S. pullorum CVCC1789. The class given is cell-based. Particulars: microtiter broth dilution, 10^5 CFU/ml, 16‒18 h at 37 °C; representative of three independent experiments. The protocol:
as §1

In another test the test system is S. pullorum CVCC1802. The class given is cell-based. The conditions noted are these: microtiter broth dilution, 10^5 CFU/ml, 16‒18 h at 37 °C; representative of three independent experiments. The protocol: as §1
Test [4] relates to Salmonella typhimurium ATCC14028. The class given is cell-based. The conditions noted are these: microtiter broth dilution, 10^5 CFU/ml, 16‒18 h at 37 °C; representative of three independent experiments. The protocol:
as §1

The test system of test [5] is Staphylococcus aureus ATCC43300. The class given is cell-based. Particulars: microtiter broth dilution, 10^5 CFU/ml, 16‒18 h at 37 °C; representative of three independent experiments. The protocol:
as §1

In test [6] the test system is Streptococcus suis CVCC606. The class given is cell-based. Particulars: microtiter broth dilution, 10^5 CFU/ml, 16‒18 h at 37 °C; representative of three independent experiments. The protocol:
as §1

Test [7] in a line: Calcein leakage from model membranes. Particulars: at 5 min, POPC/POPG (1:3) LUVs, 0.1% Triton X-100 = total. The protocol: Large unilamellar vesicles (LUVs) composed of POPC/POPG (1:3) were used as a model anionic membrane. […] were dissolved in chloroform, dried under nitrogen gas and vacuum-dried for 2 h. The lipid film was rehydrated in 20 mM HEPES (150 mM NaCl, 1 mM EDTA, pH 7.4). To make calcein-encapsulated unilamellar liposomes, the lipid film was suspended in 5 mM sodium HEPES (containing 100 mM calcein, pH 7.5). The liposome suspensions were freeze-thawed in liquid nitrogen five times and extruded ten times through two stacked polycarbonate filters (100 nm pore size) in an Avanti Mini-Extruder. Untrapped calcein was removed using a Sephadex G-50 column (Amersham Pharmacia Biotech, Little Chalfont, UK). Peptides were then added to the LUVs. After a 10-min incubation at room temperature, the release of calcein form vesicles was monitored for 10 min on a Tecan Infinite M200 PRO plate reader (TECAN, Austria) with an excitation wavelength of 485 nm and an emission wavelength of 535 nm. The total calcein fluorescence (FT) was determined by the addition of 0.1% Triton X-100. Dye leakage was calculated according to the following equation: leakage rate (%) = ((F − F0)/(FT − F0)), where F0 indicates the fluorescence of each sample at T = 0.

Test [8] has as its system S. aureus ATCC25923. Nature of the test: Inner membrane permeabilization, PI staining by flow cytometry. The conditions noted are these: 1 × MIC, 37 °C, untreated 0.04%. The class given is cell-based, Staphylococcus aureus. The protocol: The permeabilization of the inner membrane was performed according to a previous report by Li et al. with slight modifications. […] Bacterial cells were then washed twice with PBS, fixed with 50 μg/ml PI and analyzed using a BD FACS Calibur Flow Cytometer (Franklin Lakes, New Jersey, USA). Data were analyzed using CellQuest Pro software (BD, USA).
In general terms: In flow cytometry, cells or beads pass a laser one at a time.

The subject of test [9] is S. aureus ATCC25923. The class given is in vivo. Particulars: for reduction of bacterial burden in thigh: 10 h after treatment. The protocol: The thigh infection protocol was performed as previously described. Female BALB/c mice (6 weeks old, 22 ± 2 g) were rendered neutropenic (neutrophils, 100/mm^3) by intraperitoneal injection with 150 and 100 mg cyclophosphamide per kg of body weight for 4 d and 1 d before infection, respectively. Mice were inoculated with 100 μl of S. aureus ATCC25923 cells (1.0 × 10^7 CFU/ml) and given a single dose (0.2 ml) of Lfcin4 or Lfcin5 (10 or 15 mg/kg of body weight) or vancomycin (10 mg/kg of body weight) by tail vein injection at 2 h post-infection. Mice were humanely euthanized by cervical dislocation at 5 and 10 h after treatment. Thighs were removed and homogenized in sterile PBS for a CFU assay for S. aureus ATCC25923.

Another test relates to LPS-induced lung injury. Description: LPS-induced lung injury, histology. The class given is in vivo, mouse (C57BL/6). The conditions noted are these: 15 mg/kg i.p. 30 min after LPS 10 mg/kg. The protocol: Thirty minutes after intraperitoneal injection of LPS (10 mg/kg of body weight in 0.2 ml), mice were intraperitoneally injected with Lfcin4, Lfcin5 or colistin (15 mg/kg of body weight in 0.2 ml). Mice were sacrificed at 8 h, 1 d, 4 d, and 7 d after LPS injection. The lungs were removed, washed with PBS and fixed in 4% paraformaldehyde at 4 °C for 24 h. After they were washed with PBS and dehydrated with a graded series of ethanol (75‒95%), the tissues were infiltrated with xylene and embedded in paraffin wax. Sections were cut, stained with hematoxylin and eosin and examined under a light microscope. Mice injected with LPS or only PBS served as positive or mock-treated controls, respectively.

As to “FKAWRWAWRMKKLAAPS [Lfcin4, 17-residue LfcinB17-31 derivative, Trp/Ala-containing]”, the MIC with S. enteritidis CVCC3377 is 1.8 μM and 4 μg/ml; in [1], 15 μM and 32 μg/ml; in test [2], 7.3 μM and 16 μg/ml; with Escherichia coli CVCC195, 30 μM and 64 μg/ml; in [3], >58 μM and >128 μg/ml; with S. choleraesuis CVCC503 it was 58 μM and 128 μg/ml. Moreover, the MIC is >58 μM and >128 μg/ml in the test with S. pullorum CVCC1789; >58 μM and >128 μg/ml in the test on S. pullorum CVCC1802; 58 μM and 128 μg/ml in test [4]; 29 μM and 64 μg/ml in test [5]; 58 μM and 128 μg/ml in [6]. Further, the “dye (calcein) leakage from vesicles” value was 45.5% in [7] (1× MIC), 90.6% in test [7] (2× MIC) and 98.4% in test [7] (4× MIC). Also, the PI-positive cells with S. aureus ATCC25923 [8] (30 min) is on record as 44.20%; with S. aureus ATCC25923 [8] (120 min), 50.10%. Moreover, the “reduction of bacterial burden in thigh” value in the test on S. aureus ATCC25923 [9] (10 mg/kg single i.v. dose (Fig. 6A)) is recorded as 0.03 log10 CFU/g; in the test on S. aureus ATCC25923 [9] (15 mg/kg single i.v. dose (Fig. 6A)), 0.10 log10 CFU/g. For the same sequence, the “S. aureus cells killed” value in the test with S. aureus ATCC25923 [9] (10 h post-treatment, 15 mg/kg single i.v. dose) came out at 20.5%. The “greater reduction of viable bacteria in infected thighs compared to control mice” value in the test on S. aureus ATCC25923 [9] (increasing doses from 10 to 15 mg/kg (discussion)) is 0.85 log10 CFU/g of tissue. The “lung histology (in words)” value in the test on LPS-induced lung injury (8 h‒4 d) was “apparently less lung damage”; in the test on LPS-induced lung injury (7 d), “no obvious pathological differences”.
